Source: BindingDB's records for doi:10.7270/Q21N7ZQ4 (Johns Hopkins Ion Channel Center, 2012)

Target: T1, High affinity choline transporter 1 (Homo sapiens, UniProt Q9GZV3)
T1 sequence (Q9GZV3 whole entry): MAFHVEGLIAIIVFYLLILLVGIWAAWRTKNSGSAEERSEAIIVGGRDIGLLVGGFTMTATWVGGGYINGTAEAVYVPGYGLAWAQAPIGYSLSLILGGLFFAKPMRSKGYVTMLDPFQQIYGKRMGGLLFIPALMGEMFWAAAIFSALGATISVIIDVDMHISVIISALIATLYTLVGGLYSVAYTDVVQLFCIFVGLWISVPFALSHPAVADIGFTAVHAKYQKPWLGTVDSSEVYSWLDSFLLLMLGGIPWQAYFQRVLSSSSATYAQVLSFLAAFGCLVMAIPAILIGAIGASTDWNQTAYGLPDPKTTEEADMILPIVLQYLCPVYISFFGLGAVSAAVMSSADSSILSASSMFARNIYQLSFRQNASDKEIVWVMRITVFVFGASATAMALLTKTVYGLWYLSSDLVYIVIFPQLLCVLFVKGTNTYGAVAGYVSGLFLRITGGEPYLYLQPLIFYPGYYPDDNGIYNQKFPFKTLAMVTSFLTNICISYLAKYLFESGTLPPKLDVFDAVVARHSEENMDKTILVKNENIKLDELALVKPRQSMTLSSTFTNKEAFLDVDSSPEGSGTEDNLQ
Assay: CHT activators, dose response, cell-based, 10-point CRC, membrane potential dye (AID 602376)

`CCOC(=O)c1ccc(-[n+]2c(-c3ccccc3)cc(-c3ccccc3)cc2-c2ccccc2)cc1` [MLS001242871] was tested, and the EC50 was 14.1 µM.
`COc1cc(C2c3ccc(N)cc3OC(=N)C2C#N)cc(OC)c1OC` (configuration not stated) [2,7-bis(azanyl)-4-(3,4,5-trimethoxyphenyl)-4H-chromene-3-carbonitrile] was tested, and the EC50 was 13.5 µM.
